Patent publication US6992215B2, “Thiol-based NAALADase inhibitors” (Guildford Pharmaceuticals Inc., priority 2001, dated 2006)

Key:
[1] = test system: TGF-β1; test: TGF-β1 levels in MCAO rats assessed by microdialysis; assay type: in vivo; settings: during both occlusion and reperfusion, FIG. 6
[2] = test system: ischemic cell cultures; test: Neuroprotective effect in in vitro ischemia model with growth factor neutralizing antibodies; assay type: cell-based
Procedure: TGF-β neutralizing antibodies were then added to the ischemic cell cultures.

[3] = test system: TGF-β1; test: Effect of NAALADase inhibition on TGF-β1 in in vitro ischemia model; assay type: cell-based; settings: ischemic cell cultures, FIG. 1
Procedure: (§1) A NAALADase inhibitor, Compound C, was added to ischemia cell cultures to determine its effect on TGF-β levels during stroke.

[4] = test system: chronic constrictive injury-induced rats; test: Neuropathic pain in CCI model (sciatic nerve ligation, thermal hyperalgesia); assay type: in vivo; settings: 50 mg/kg i.p. daily starting 10 days post surgery
Procedure: Sciatic nerve ligation, consisting of 4 ligatures tied loosely around the sciatic nerve at 1 mm intervals proximal to the nerve trifurcation, was performed on rats. […] The rats were habituated to a Hargreaves apparatus. An infrared heat source was directed onto the dorsal surface of each rat's hindpaws and the time taken for the rat to withdraw its paws was noted. The difference in scores between the latency of the response for the paw on the operated side versus the paw on the unoperated control side was determined.
The rats were treated with either Compound 49 (10, 1 or 0.1 mg/kg) or a vehicle for 15 days after sciatic nerve ligation. Thermal pain responses were measured at days 0, 1, 5, 8, 11 and 15. The differences in scores for the rats treated with a vehicle and the rats treated with Compound 49 are graphically presented in FIGS. 13-15.
The rats were treated with either Compound 5 (50, 30, 10, 3, 1 or 0.3 mg/kg) or a vehicle for 12 (or 15) days after sciatic nerve ligation. Thermal pain responses were measured at days 0, 1, 5, 8 and 12 (and 15). The differences in scores for the rats treated with a vehicle and the rats treated with Compound 5 are graphically presented in FIGS. 17-22.
The rats received either Compound C (50 mg/kg i.p. daily) or a vehicle starting 10 days post surgery. […] Normal (unoperated) rats had approximately equal latencies for both paws. This effect was significant starting at 11 days of drug treatment and persisted through to the end of the study (for 21 days of daily dosing).

[5] = test system: TGF-β2; test: Effect of NAALADase inhibition on TGF-β2 in in vitro ischemia model; assay type: cell-based; settings: ischemic cell cultures, FIG. 2
Procedure: as §1

[6] = test system: rats subjected to middle cerebral artery occlusion; test: Neuroprotective effect in MCAO rats with TGF-β neutralizing antibodies; assay type: in vivo; settings: FIG. 5
Excerpt: The effect of TGF-β neutralizing antibodies on the neuroprotective effect of Compound C was also studied in rats following MCAO.
One of ordinary skill in the art can appreciate that the regulation of TGF-β's by NAALADase inhibitors may have implications not only in stroke, but also in other diseases, disorders and conditions including, without limitation, neurological diseases, psychiatric diseases, demyelinating diseases, prostate cancer, inflammation, diabetes and angiogenesis.

O=C(O)CCC(CP(=O)(O)O)C(=O)O (centres unmarked) [Compound C, 2-(phosphonomethyl)pentanedioic acid]
TGF-β1 levels [1]: significant rise | neuroprotective effect in the presence of TGF-β neutralizing antibodies ([2]; FIG. 3): blocked | neuroprotective effect in the presence of FGF antibody ([2]; FIG. 4): did not block | TGF-β1 concentrations [3]: increased concentrations | time of drug treatment from which the effect was significant [4]: 11 days | difference scores between the two paws ([4]; FIG. 8): dramatically normalized | TGF-β2 concentrations [5]: increased concentrations | neuroprotective effect in vivo in the presence of TGF-β neutralizing antibodies [6]: significantly attenuated
